Measured values reported in patent publication US6590123B2, “Aminobenzoic acid derivatives having anti-tumorigenic activity, methods of making and using the same” (Mount Sinai School of Medicine of New York University, priority 1998, dated 2003).
≈ marks a conversion by molar mass, not a printed value. Where “and” joins values, the source holds several entries; their conditions need not be identical. Equal entries are not always repeated. Entries after “also recorded” stand apart in the source; their conditions may differ. Where two headings read alike, the source gives them in different places.

Legend:
[1] = tested on: CEM cells; test: Cytotoxicity, ID50 and ID90 by trypan blue staining; format: cell-based; conditions: for IC90 / IC50: Homo sapiens, CCRF-CEM; for IC90: 48 h, read-out: ID90 (the source's name); for IC50: NT = Non-toxic to CEM cells
Procedure: CEM cells, a human T-cell lymphoblastoid leukemia cell line (American Type Culture Collection, Rockville, Md.), were cultured in suspension (Iscove's Dulbecco's Medium) supplemented with 10% heat inactivated fetal bovine serum (FBS), penicillin (250 μ/ml) and streptomycin (250 μl/ml). Cells were incubated at 37° C. in 5% C02 and only those cells in exponential growth were used.
CEM cells were seeded into 96-well microplates (Falcon, Oxnard, Calif.) at 10^5 cell per well, then treated with 0-10 μg/ml of the candidate compounds for 48 h at 37° C. yielding a total volume of 250 μ/well. Cell viability was assessed by trypan blue staining. ID50 and ID90 were defined as the concentration killing 50% or 90% of the cells in comparison with untreated controls, and calculated by non-linear regression analysis.
(§1) Cells in suspension culture were seeded into 96-well microplates (Falcon, Oxnard, Calif.) at 10^5 cell per well, followed, by treatment with 0-10 μg/ml of the candidate compounds for 48 hr at 37° C. with total volume of 250 μl per well. Cell viability was assessed by trypan blue exclusion.
The ID50 and ID90 was determined in duplicate in every set of experiments, and each experiment was repeated 3 times under identical conditions. ID50 and ID90 were defined as drug concentrations that induced 50% or 90% cellular death in comparison with untreated controls and calculated by non-linear regression analysis. […]

[2] = tested on: CEM cells; test: Cell cycle analysis by flow cytometry; format: cell-based, human; conditions: for shift of the cell population from G0/G1 (2N) to G2/M (4N), DNA profile: 8 h treatment, compound 6 2.5 μg/ml, compound 8 0.025 μg/ml, compound 9 0.005 μg/ml; for Apoptosis (%) / G0/G1 (%) / G2/M (%) / S (%) / Mitotic Arrest: 0.025 μg/ml; for Mitotic Arrest: cell cycle analyses
[3] = LD50 (lethal dose) in mice; conditions: mouse, in vivo, ip
Description: (§2) The in vivo efficacy of 3-BAABU and 3-IAABU of the present invention was asssessed in a murine model, along with known anti-tubule agents, vinblastine and paclitaxel, as a comparative standard. Approximately 10^6 P338 leukemia lymphoma cells/mouse were implanted intra-peritoneal (i.p.) into male C57 BL/6JX mice (Jackson Laboratories, N.Y.). On days 2 and 8 post-implantation, drugs were administrated i.p. at the following concentration ranges: 3-BAABU from 16.6 to 116 μmole/kg, 3-IAABU from 14.4 to 101 μmole/kg, vinblastine from 2.2 to 20 μmole/kg and paclitaxel from 28 to 57 μmole/kg.
(§3) Both control and treated animals were examined for ascitic tumor burden daily for 35 days. […] Therapeutic index was defined as the ratio of LD50 (lethal dose) to ED50 (effective dose).

[4] = tested on: P338 leukemia lymphoma cells; test: Survival and ED50 in mice implanted i.p. with P338 lymphoma; format: in vivo, male C57 BL/6JX mice; conditions: for ED50: P338 leukemia lymphoma i.p. in mice, drug i.p. on days 2 and 8
Procedure: FIG. 9 is a plot graph of the survival rate of male C57 BL/6JX mice implanted (i.p.) with P338 lymphoma, from 10 to 40 days after implantation. Two groups were used for the study: a control group of ten and a test group of ten that were treated with 20 mg/kg, (i.p.) of compound 8 at 2 and 8 days post-implantation.
as §2, §3

[5] = tested on: EL4 murine leukemia lymphoma; test: Block of mitosis, morphology by microscopy; format: cell-based; parameters: key: +Block of mitosis was observed; −no mitotic blocking; conditions: 37° C. for 48 hr
Procedure: (§4) All cell lines, with the exception of human SP cells, a biphenotypic leukemic cell line (reference 10 & 11), were obtained from the American Tissue Culture Collection (Rockville, Md.) and were cultured under conditions recommended by the vendor. EL4 murine leukemia lymphoma (as suspension) and B16 mouse melanoma (as monolayer) cell lines were cultivated in RPMI-1640 medium supplemented with 10% fetal bovine serum (FBS), penicillin (250 μ/ml) and streptomycin (250 μml); MOT, a non-tumor proliferative myocardial cell line from rat and NIH 3T3, a non-malignant and proliferative fibroblast cell line from mouse were both cultured as monolayers in Dulbecco's Modified Eagle's Medium with 10% heat inactivated calf serum. CEM, a human acute T-cell leukemic cell line, was cultured as a suspension in Iscove's Dulbecco's Medium with 10% heat inactivated fetal calf serum and antibiotics. PC-3 cells, a human prostate cancer line, was cultured as monolayers in RPMI-1640 with 10% FBS. SP cells were cultured in Minimum Eagle's Medium plus 10% FBS. Human peripheral blood lymphocytes (PBL) were isolated from whole blood of healthy individuals by Ficoll-Hypaque gradient method. Isolated PBL were maintained in RPMI-1640 in the presence of 10% homologous plasma at 37° C. All cells were incubated at 37° C. in 5% C02. Cells in exponential growth were used. […]

[6] = tested on: SP cells; test: Cytotoxicity, ID50 and ID90 by trypan blue exclusion; format: cell-based; conditions: Human MDS, 48 hr
Procedure: as §4, with “antibiotics.” for “antibiotics. PC-3 cells, a human prostate cancer line, was cultured as monolayers in RPMI-1640 with 10% FBS. SP cells were cultured in Minimum Eagle's Medium plus 10% FBS. Human peripheral blood lymphocytes (PBL) were isolated from whole blood of healthy individuals by Ficoll-Hypaque gradient method. Isolated PBL were maintained in RPMI-1640 in the presence of 10% homologous plasma at 37° C. All cells were incubated at 37° C. in 5% C02. Cells in exponential growth were used.”
as §1
(§5) The ID50 and ID90 was determined in duplicate in every set of experiments, and each experiment was repeated 3 times under identical conditions. […]

[7] = tested on: EL4 murine leukemia lymphoma; test: as above; format: cell-based; conditions: 48 hr
Procedure: as §4, with “antibiotics.” for “antibiotics. PC-3 cells, a human prostate cancer line, was cultured as monolayers in RPMI-1640 with 10% FBS. SP cells were cultured in Minimum Eagle's Medium plus 10% FBS. Human peripheral blood lymphocytes (PBL) were isolated from whole blood of healthy individuals by Ficoll-Hypaque gradient method. Isolated PBL were maintained in RPMI-1640 in the presence of 10% homologous plasma at 37° C. All cells were incubated at 37° C. in 5% C02. Cells in exponential growth were used.”
as §1, §5

[8] = tested on: NIH 3T3 fibroblast cell line; test: Block of mitosis, morphology by microscopy; format: cell-based, mouse; parameters: key to Block of Mitosis: +Block of mitosis was observed; −no mitotic blocking
Procedure: as §4

[9] = CEM cells, concentration killing 90% of the cells

NC(=O)NC(=O)c1cccc(NC(=O)CCl)c1 [Compound 7, 3-Chloroacetoamido, benzoylurea]
fold increase of ID50 relative to 3-BAABU ([1]; CEM leukemic cells): 40 fold
IC90 [1, 9]: 0.6 µg/mL and 2.3 µM
IC50 ([1]; CEM leukemic cells, 48 hr): 1950 nM
shift of the cell population from G0/G1 (2N) to G2/M (4N), DNA profile [2]: slight increase

NC(=O)NC(=O)c1cccc(NC(=O)CBr)c1 [Compound 8, 3-Bromoacetoamido, benzoylurea]
IC90 [1, 9]: 0.025 µg/mL and 82 nM
IC90 ([1]; CEM, Human T-cell Leukemia, 48 hr): 0.02 ± 0.003 µg/mL (≈ 0.0666 µM)
IC50 ([1]; CEM leukemic cells, 48 hr): 40 nM
ID50 of non-malignant cells relative to leukemic and lymphoma cell lines (times) ([1]; non-malignant cells vs leukemia or lymphoma cell lines, listed as 3-BAABU): 60-150 times
Apoptosis (%) ([2]; 1 hour of treatment): 2%
G0/G1 (%) ([2]; 1 hour of treatment): 48%
G2/M (%) ([2]; 1 hour of treatment): 21%
S (%) ([2]; 1 hour of treatment): 29%
Apoptosis (%) ([2]; 2 hours of treatment): 1%
G0/G1 (%) ([2]; 2 hours of treatment): 35%
G2/M (%) ([2]; 2 hours of treatment): 22%
S (%) ([2]; 2 hours of treatment): 42%
Apoptosis (%) ([2]; 4 hours of treatment): 4%
G0/G1 (%) ([2]; 4 hours of treatment): 28%
G2/M (%) ([2]; 4 hours of treatment): 29%
S (%) ([2]; 4 hours of treatment): 39%
Apoptosis (%) ([2]; 8 hours of treatment): 5%
G0/G1 (%) ([2]; 8 hours of treatment): 16%
G2/M (%) ([2]; 8 hours of treatment): 44%
S (%) ([2]; 8 hours of treatment): 35%
Apoptosis (%) ([2]; 12 hours of treatment): 7%
G0/G1 (%) ([2]; 12 hours of treatment): 4%
G2/M (%) ([2]; 12 hours of treatment): 60%
S (%) ([2]; 12 hours of treatment): 29%
Apoptosis (%) ([2]; 24 hours of treatment): 18%
G0/G1 (%) ([2]; 24 hours of treatment): 2%
G2/M (%) ([2]; 24 hours of treatment): 70%
S (%) ([2]; 24 hours of treatment): 10%
Apoptosis (%) ([2]; 48 hours of treatment): 33%
G0/G1 (%) ([2]; 48 hours of treatment): 1%
G2/M (%) ([2]; 48 hours of treatment): 61%
S (%) ([2]; 48 hours of treatment): 5%
shift of the cell population from G0/G1 (2N) to G2/M (4N), DNA profile [2]: major shift
Mitotic Arrest ([2]; Continuous Exposure (24 hr; 48 hr in footnote)): ++++ (++++: >75% cells were affected)
Mitotic Arrest ([2]; Pulse Exposure (1 hr)): ++++ (++++: >75% cells were affected)
LD50 [3]: about 90 μmole/kg
Survival IL % ([4]; P338 Lymphoma (i.p.), 20 mg/kg ip on days 2 & 8): 54%
Survival Mean ± SD ([4]; P338 Lymphoma (i.p.), 20 mg/kg ip on days 2 & 8, control 18.6 ± 1.1): 28.6 ± 5.2
ED50 [4]: 27 µmol/kg
Block of Mitosis [5]: +
ID90 [6]: 0.71 ± 0.11 µg/mL (≈ 2.37 µM)
ID90 [7]: 0.02 ± 0.004 µg/mL (≈ 0.0666 µM)
Block of Mitosis ([8]; 3T3, Murine fibroblast (non-tumor), 37° C. for 48 hr): −
morphologic effect ([8]; murine fibroblast cells, 1.0 μg/ml, 24 hr at 37° C.): no effect

NC(=O)NC(=O)c1cccc(NC(=O)CI)c1 [Compound 9, 3-Iodoacetoamido, benzoylurea]
fold more toxic than the bromine compound 8 ([1]; CEM cells, cytotoxicity): 5 fold
fold more toxic than the chlorine compound 7 ([1]; CEM cells, cytotoxicity): 160 fold
IC90 [1, 9]: 0.005 µg/mL and 14 nM
shift of the cell population from G0/G1 (2N) to G2/M (4N), DNA profile [2]: most significant transformation; also recorded: major shift
LD50 [3]: about 90 μmole/kg
ED50 [4]: 26 µmol/kg
